US6864275B1, “Compounds and methods for use thereof in the treatment of cancer” (UAF Technologies and Research, LLC, priority 1997, dated 2005)

How the values were obtained:
B16 murine melanoma = experiment: MTT cell growth inhibition, B16 melanoma cells; type: cell-based; conditions: 3-6 days incubation
Method: (§1) The following cell culture tests were performed to test the toxicity of benzimidazole derivative compounds of the present invention on colon and melanoma tumor cells. The viability of the cells were tested by looking at MTT (3-[4,5-dimethylthiazol-2-yl]-2,5-diphenyltetrazolium bromide) reduction. MTT assay is a well known measure of cell viability.
(§2) The colon tumor cells (HT29) and the melanoma cells (B16 murine melanoma) were seeded (1000-2000 cells) into each well of a 96-well microtiter plate and allowed to grow. Twenty-four hours later, increasing concentrations of each benzimidazole derivative were added to the plates and the cells were allowed to incubate for 3-6 days in the presence of the drugs. MTT reagent was then added to the wells and allowed to incubate for 4 hours at 37° C., after which the formazan metabolite was solubilized with acidic isopropanol and the absorbance was read. Experimental controls included blank wells to which no cells were added (zero point of formazan absorbance) and control wells to which no drug was added (highest level of formazan absorbance). Each drug concentration was tested in duplicate and the resulting average absorbance was plotted against drug concentration using the EZ-ED50 computer program on a personal computer interfaced to the microtiter plate reader. […] The IC50 value is then derived from this equation by EZ-ED50.

colon tumor cells (HT29) = experiment: MTT cell growth inhibition, HT29 colon tumor cells; type: cell-based; conditions: 3-6 days incubation, read-out: IC50 Human Colon Carcinoma
Method: as §1, §2

Tubulin = experiment: Microtubule inhibition assay (tubulin polymerization, absorbance at 350 nm); type: biochemical, bovine; conditions: compound at 2 μM, after 30 minutes
Method: The benzimidazole derivatives of this invention were evaluated for their ability to inhibit formation of microtubules, following the procedure of Luduena, R. F. and M. C. […] Microtubule polymerization was followed by performing the reaction in a cuvette and monitoring UV absorbance at 350 nm, allowing direct visualization of the time course of the polymerization.

SMILES	IC50 (B16 murine melanoma) [µM]	IC50 (colon tumor cells (HT29)) [µM]	Tubulin Polymerization Inhibition, % Inhibition (Tubulin)
COC(=O)Nc1nc2ccc(C(=O)NCCN(C)C)cc2[nH]1 [Cpd. No. 2-14]	403	158	none
COC(=O)Nc1nc2ccc(C(=O)OCCOCCO)cc2[nH]1 [Cpd. No. 3-5]	2.6	–	10%
COC(=O)Nc1nc2ccc(C(=O)OC(CCl)CCl)cc2[nH]1 [Cpd. No. 3-12]	0.99	2.1	11%
COC(=O)Nc1nc2ccc(NC(=O)CC(C)CC(C)(C)C)cc2[nH]1 (centres unmarked) [Cpd. No. 5-1]	6.6	7	none
COC(=O)Nc1nc2ccc(C(=O)N(C)C3CCCCC3)cc2[nH]1 [Cpd. No. 2-16]	0.32	0.23	39%
CCOCCOCCOC(=O)c1ccc2nc(NC(=O)OC)[nH]c2c1 [Cpd. No. 3-4]	0.084	0.027	12%
COC(=O)Nc1nc2ccc(C(=O)OCCN(C)C)cc2[nH]1 [Cpd. No. 3-8]	70.4	48.6	none
CCN(CC)CCCNC(=O)c1ccc2nc(NC(=O)OC)[nH]c2c1 [Cpd. No. 2-1]	530	398	24%
COC(=O)Nc1nc2ccc(C(=O)NC(C)CC(C)C)cc2[nH]1 (centres unmarked) [Cpd. No. 2-6]	0.84	0.5	12%
COC(=O)Nc1nc2ccc(C(=O)NNc3ccccc3)cc2[nH]1 [Cpd. No. 2-12]	271	25.4	50%

Further lines, with some results ahead:

IC50 (B16 murine melanoma) [µM]	IC50 (colon tumor cells (HT29)) [µM]	SMILES	Tubulin Polymerization Inhibition, % Inhibition (Tubulin)
80.5	121	COC(=O)Nc1nc2ccc(C(=O)NCCN3CCOCC3)cc2[nH]1 [2-2]	11%
< 0.001	0.013	COC(=O)Nc1nc2ccc(C(=O)OCCC(C)CC(C)(C)C)cc2[nH]1 (centres unmarked) [3-20]	35%
9.4	3.1	CCCN(CCC)C(=O)c1ccc2nc(NC(=O)OC)[nH]c2c1 [2-18]	42%
0.085	0.033	COC(=O)Nc1nc2ccc(C(=O)OCc3ccccc3)cc2[nH]1 [3-7]	26%
0.082	0.036	COC(=O)Nc1nc2ccc(C(=O)OCCOCCCl)cc2[nH]1 [3-2]	14%
248	107	COC(=O)Nc1nc2ccc(C(=O)OCCCCCO)cc2[nH]1 [3-11]	50%
0.41	0.42	COC(=O)Nc1nc2ccc(C(=O)NCCC(C)(C)C)cc2[nH]1 [2-7]	43%
553	447	COC(=O)Nc1nc2ccc(C(=O)NCCCN(C)C)cc2[nH]1 [2-10]	5%
588	314	COC(=O)Nc1nc2ccc(C(=O)OCC(F)(F)C(F)(F)F)cc2[nH]1 [3-14]	23%
2.9	1.6	CCC(C)NC(=O)c1ccc2nc(NC(=O)OC)[nH]c2c1 (centres unmarked) [2-3]	26%
1	0.6	COC(=O)Nc1nc2ccc(C(=O)OCC=CCO)cc2[nH]1 [3-10]	none
47.2	35.7	COC(=O)Nc1nc2ccc(C(=O)NCC3CCCO3)cc2[nH]1 (centres unmarked) [2-4]	36%
5	4.9	CCC(C)CNC(=O)c1ccc2nc(NC(=O)OC)[nH]c2c1 (centres unmarked) [2-8]	none
4.6	2.5	CCCCN(C)C(=O)c1ccc2nc(NC(=O)OC)[nH]c2c1 [2-17]	none
